Patent US20240285552A1 (priority 2020, published 2024)
“And” between values parts separate entries of the source, which are not always exact repeats. Equal values may be shown once. “Also recorded” adds a separate entry of the source. Where a name gives a salt, the structure may show the parent alone. Read-outs that look alike come from different tables or passages of the source.

Experiments:
[1] = target: T1, recombinant human ACE2 (rhACE2) (Homo sapiens, UniProt Q9BYF1); experiment: ACE2 exopeptidase inhibitor screening assay (fluorogenic substrate), AMB and BHH; assay type: biochemical
T1 construct: purchased BPS Bioscience 79923
Description: ACE2 Inhibitor Screening Assay. An ACE2 exopeptidase Inhibitor screening assay kit with the fluorogenic substrate (Catalogue #79923) was purchased from BPS Bioscience (San Diego, CA) and modified to measure the exopeptidase activity of ACE2 in the presence and absence of inhibitors (BPSBioscience, 2022). Following the manufacturer's directions, the fluorescence assay was carried out in a 96-well black flat-bottom plate with a final reaction volume of 50 μL. 50 mM stock solutions of BHH and AMB in 100% DMSO were prepared. Compounds were serially diluted in DMSO as follows: 500, 250, 100, 50, 10, 1, 0.1 μM. All experiments were done in triplicates and repeated twice. A positive control of enzyme treated with vehicle alone (2 percent DMSO) and a blank control with no enzyme were included on each plate.
Each reaction had 24 μL of purified recombinant human ACE2 protein (0.42 ng/L) in ACE2 buffer, 1 μL of the compound at different concentrations, and 25 μL ACE2 fluorogenic substrate. The final volume of the reaction was 50 μL. The reaction mixtures were incubated for 1 hr at room temperature (22° C.) and protected from light. After that, the fluorescence intensities (λExcitation=535 nm, λEmission=595 nm) were measured using a Spectramax iD3 multimode plate reader. The background hydrolysis was subtracted, and the data were fitted to a four-parameter logistic (variable slope) equation using GraphPad prism software 9.1.

[2] = system: SARS-CoV-2 spike pseudotyped lentivirus; experiment: microbe, parasite or virus in culture; assay type: cell-based
[3] = target: T2, rhACE2 and SARS-CoV-2 Spike (RBD) protein interaction (Homo sapiens, UniProt Q9BYF1); experiment: Spike (RBD)-ACE2 binding assay (ELISA); set-up: species or system human; SARS-CoV-2; conditions: for IC50: bell-shaped model, AMB, BHH
T2 construct: purchased RayBiotech CoV-SACE2-1

ACE1 = target: T3, ACE1 (Homo sapiens, UniProt P12821); experiment: ACE1 activity assay (colorimetric); assay type: biochemical
T3 construct: purchased Sigma-Aldrich MAK422
Description: ACE1 Activity Assay. ACE1 Inhibitor Screening Kit (Cat #MAK422) was purchased from Sigma-Aldrich (St. Louis, MO) and adapted to determine the effect of BHH and AMB on the enzymatic activity of ACE (Aldrich, 2022). The in vitro colorimetric assay was performed in a transparent flat-bottom 96-well plate. 50 mm and 10 mm solutions of Captropil, a known ACE1 inhibitor were used as a positive inhibitor control. Stock solutions of the compounds were prepared in 100% Dimethyl sulfoxide (DMSO) and further serially diluted in DMSO as follows: 500, 100, 50,10,5,1 and 0.5 μm for AMB and the positive control Captropil. All experiments were performed in quadruplicates. Each plate contained positive controls (1% DMSO) and blank controls with no ACE1 enzyme. Specifically, 2.5 μl of serially diluted compounds were pre-incubated with 2 μl of ACE1 protein diluted in 38 μl of 1× assay diluent buffer for about 15 mins, at room temperature (22° C.). 157.5 μl of 1×ACE1 assay buffer (197.5 μl for −ve control) was added into the 96 well plates. The solution was mixed well and incubated at 37° C. for 15-20 minutes, protected from light. After that, 40 μl of the substrate was added to each well and mixed well. The absorbance was measured immediately at 345 nm (A345) in kinetic mode for 60 minutes.

Vero E6 cells = conditions: Vero E6
SARS-CoV-2 USA_WA1/2020 = conditions: hamster
in vitro = conditions: African green monkey

T1 sequence (Q9BYF1 18-805): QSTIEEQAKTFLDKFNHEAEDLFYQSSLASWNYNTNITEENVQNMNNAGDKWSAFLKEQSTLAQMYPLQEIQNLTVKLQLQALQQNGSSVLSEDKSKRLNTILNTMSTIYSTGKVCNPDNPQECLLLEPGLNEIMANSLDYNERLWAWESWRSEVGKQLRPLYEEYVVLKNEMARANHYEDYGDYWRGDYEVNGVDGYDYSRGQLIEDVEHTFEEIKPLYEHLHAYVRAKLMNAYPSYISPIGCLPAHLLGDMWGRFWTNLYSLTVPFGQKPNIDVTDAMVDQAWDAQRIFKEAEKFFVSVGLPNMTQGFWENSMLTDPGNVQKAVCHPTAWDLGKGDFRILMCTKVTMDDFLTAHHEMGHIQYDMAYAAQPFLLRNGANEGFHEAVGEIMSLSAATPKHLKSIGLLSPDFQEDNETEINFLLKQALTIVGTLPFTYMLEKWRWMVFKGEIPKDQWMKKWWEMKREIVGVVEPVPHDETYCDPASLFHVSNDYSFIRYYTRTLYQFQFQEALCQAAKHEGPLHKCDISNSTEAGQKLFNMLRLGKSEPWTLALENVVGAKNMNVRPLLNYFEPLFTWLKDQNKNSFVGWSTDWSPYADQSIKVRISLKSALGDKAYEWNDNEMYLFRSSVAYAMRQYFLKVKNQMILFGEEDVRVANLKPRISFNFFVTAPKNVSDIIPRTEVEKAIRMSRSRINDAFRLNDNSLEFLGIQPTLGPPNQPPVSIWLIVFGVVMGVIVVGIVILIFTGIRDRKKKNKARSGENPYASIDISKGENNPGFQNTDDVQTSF
T2 sequence (Q9BYF1 18-740): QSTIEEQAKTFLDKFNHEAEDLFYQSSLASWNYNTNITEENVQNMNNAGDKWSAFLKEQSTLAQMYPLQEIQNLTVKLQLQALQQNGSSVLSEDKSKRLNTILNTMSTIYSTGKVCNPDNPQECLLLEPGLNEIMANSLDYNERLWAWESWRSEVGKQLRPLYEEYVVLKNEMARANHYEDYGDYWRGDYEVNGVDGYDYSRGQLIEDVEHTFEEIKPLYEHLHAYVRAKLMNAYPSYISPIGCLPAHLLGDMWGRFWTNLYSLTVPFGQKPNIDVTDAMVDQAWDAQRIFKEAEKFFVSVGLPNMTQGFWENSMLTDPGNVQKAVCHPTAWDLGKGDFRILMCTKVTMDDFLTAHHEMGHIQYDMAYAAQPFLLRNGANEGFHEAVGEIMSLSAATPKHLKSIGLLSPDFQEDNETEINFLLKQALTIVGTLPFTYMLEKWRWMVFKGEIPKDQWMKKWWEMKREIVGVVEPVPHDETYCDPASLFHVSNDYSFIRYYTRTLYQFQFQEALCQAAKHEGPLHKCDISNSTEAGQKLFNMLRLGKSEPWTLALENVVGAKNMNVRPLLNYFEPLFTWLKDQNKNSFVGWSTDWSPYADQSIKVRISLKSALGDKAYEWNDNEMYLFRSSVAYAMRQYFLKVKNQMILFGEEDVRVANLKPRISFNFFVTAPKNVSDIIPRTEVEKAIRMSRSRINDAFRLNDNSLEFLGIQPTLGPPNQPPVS
T3 sequence (P12821 30-1306): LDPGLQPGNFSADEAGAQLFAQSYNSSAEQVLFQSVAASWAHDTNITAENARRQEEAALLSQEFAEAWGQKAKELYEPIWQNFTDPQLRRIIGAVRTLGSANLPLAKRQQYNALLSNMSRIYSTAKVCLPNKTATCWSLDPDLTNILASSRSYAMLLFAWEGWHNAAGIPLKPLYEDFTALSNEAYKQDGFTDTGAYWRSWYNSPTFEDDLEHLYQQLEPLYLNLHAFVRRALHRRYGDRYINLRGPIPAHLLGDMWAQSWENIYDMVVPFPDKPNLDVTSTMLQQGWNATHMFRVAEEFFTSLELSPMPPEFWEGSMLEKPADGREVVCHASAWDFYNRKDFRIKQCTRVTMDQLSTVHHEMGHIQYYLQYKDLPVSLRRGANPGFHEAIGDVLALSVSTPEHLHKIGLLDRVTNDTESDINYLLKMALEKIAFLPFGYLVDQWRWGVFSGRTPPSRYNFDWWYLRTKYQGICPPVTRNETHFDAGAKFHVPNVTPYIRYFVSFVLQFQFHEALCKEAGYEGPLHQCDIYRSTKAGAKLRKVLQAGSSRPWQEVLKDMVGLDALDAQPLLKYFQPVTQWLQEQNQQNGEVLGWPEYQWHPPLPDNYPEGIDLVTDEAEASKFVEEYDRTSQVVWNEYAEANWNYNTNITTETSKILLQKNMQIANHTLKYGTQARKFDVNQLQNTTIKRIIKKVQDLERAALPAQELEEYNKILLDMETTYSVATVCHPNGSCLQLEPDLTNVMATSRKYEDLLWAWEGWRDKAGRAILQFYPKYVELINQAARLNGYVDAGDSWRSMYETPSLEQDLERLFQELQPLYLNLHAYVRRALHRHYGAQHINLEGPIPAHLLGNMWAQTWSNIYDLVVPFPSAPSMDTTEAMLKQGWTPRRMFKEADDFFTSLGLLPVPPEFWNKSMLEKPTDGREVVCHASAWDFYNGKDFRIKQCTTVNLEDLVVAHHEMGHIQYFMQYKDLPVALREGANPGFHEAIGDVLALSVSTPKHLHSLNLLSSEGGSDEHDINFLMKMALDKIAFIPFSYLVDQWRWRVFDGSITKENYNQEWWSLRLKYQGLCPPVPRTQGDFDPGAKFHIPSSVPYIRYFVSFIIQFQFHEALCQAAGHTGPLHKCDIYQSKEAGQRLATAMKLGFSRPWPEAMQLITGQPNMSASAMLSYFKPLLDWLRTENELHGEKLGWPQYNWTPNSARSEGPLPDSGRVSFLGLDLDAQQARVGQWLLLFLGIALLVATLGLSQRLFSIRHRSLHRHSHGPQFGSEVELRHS

Q: Which results are given for `Nc1c(Br)cc(Br)cc1CN[C@H]1CC[C@H](O)CC1` [AMB, 4-[(2-amino-3,5-dibromophenyl)methylamino]cyclohexan-1-ol; hydrochloride]?
A: ACE2 Exopeptidase Activity: Percent Activity ([1]; 0.1 uM): 148.7%; inhibition at 0.1 µM ([1]; 0.1 uM, read-out: ACE2 Exopeptidase Activity: Percent Inhibition): -48.7%; ACE2 Exopeptidase Activity: Percent Activity ([1]; 1 uM): 152.3%; inhibition at 1 µM ([1]; 1 uM, read-out: ACE2 Exopeptidase Activity: Percent Inhibition): -52.3%; ACE2 Exopeptidase Activity: Percent Activity ([1]; 10 uM): 159.9%; inhibition at 10 µM ([1]; 10 uM, read-out: ACE2 Exopeptidase Activity: Percent Inhibition): -59.9%; ACE2 Exopeptidase Activity: Percent Activity ([1]; 50 uM): 157.1%; inhibition at 50 µM ([1]; 50 uM, read-out: ACE2 Exopeptidase Activity: Percent Inhibition): -57.1%; ACE2 Exopeptidase Activity: Percent Activity ([1]; 100 uM): 156.9%; inhibition at 100 µM ([1]; 100 uM, read-out: ACE2 Exopeptidase Activity: Percent Inhibition): -56.9%; ACE2 Exopeptidase Activity: Percent Activity ([1]; 250 uM): 144.7%; inhibition at 250 µM ([1]; 250 uM, read-out: ACE2 Exopeptidase Activity: Percent Inhibition): -44.7%; ACE2 Exopeptidase Activity: Percent Activity ([1]; 500 uM): 141.0%; inhibition at 500 µM ([1]; 500 uM, read-out: ACE2 Exopeptidase Activity: Percent Inhibition): -41%; effect on exopeptidase activity of rhACE2 ([1]; tested 0.1 to 500 μM): did not inhibit; Percent Inhibition of fusion of SARS-CoV-2 spike pseudotyped lentivirus with HEK293-ACE2 cells ([2]; 10 μM, Table 3, hydrochloride): 86% and 55%; Percent Inhibition of fusion of SARS-CoV-2 spike pseudotyped lentivirus with HEK293-ACE2 cells ([2]; 25 μM, Table 3, hydrochloride): 64%; Percent (%) Inhibition of Pseudo virus Entry in HEK293 Kidney Cells, SARS-COV-2 ([2]; 50 μM, Table 2, hydrochloride): 46%; Percent Inhibition of fusion of SARS-CoV-2 spike pseudotyped lentivirus with HEK293-ACE2 cells ([2]; 50 μM, Table 3, hydrochloride): 59%; Percent Inhibition of fusion of SARS-CoV-2 spike pseudotyped lentivirus with HEK293-ACE2 cells ([2]; 100 μM, Table 3, hydrochloride): 47%; inhibition at 25 µM ([2]; Severe acute respiratory syndrome coronavirus 2, 25 μM, Table 3, read-out: Percent Inhibition of fusion of SARS-CoV-2 spike pseudotyped lentivirus with HEK293-ACE2 cells): 78%; inhibition at 50 µM ([2]; Severe acute respiratory syndrome coronavirus 2, 50 μM, Table 3, read-out: Percent Inhibition of fusion of SARS-CoV-2 spike pseudotyped lentivirus with HEK293-ACE2 cells): 72%; inhibition at 100 µM ([2]; Severe acute respiratory syndrome coronavirus 2, 100 μM, Table 3, read-out: Percent Inhibition of fusion of SARS-CoV-2 spike pseudotyped lentivirus with HEK293-ACE2 cells): 41%; inhibition at 10 µM ([2]; Severe acute respiratory syndrome coronavirus 2, HEK293, 10 μM, Table 2, read-out: Percent (%) Inhibition of Pseudo virus Entry in HEK293 Kidney Cells, SARS-COV-2): 2%; inhibition at 25 µM ([2]; Severe acute respiratory syndrome coronavirus 2, HEK293, 25 μM, Table 2, read-out: Percent (%) Inhibition of Pseudo virus Entry in HEK293 Kidney Cells, SARS-COV-2): 12%; inhibition at 50 µM ([2]; Severe acute respiratory syndrome coronavirus 2, HEK293, 50 μM, Table 2, read-out: Percent (%) Inhibition of Pseudo virus Entry in HEK293 Kidney Cells, SARS-COV-2): ~50%; inhibition at 100 µM ([2]; Severe acute respiratory syndrome coronavirus 2, HEK293, 100 μM, Table 2, read-out: Percent (%) Inhibition of Pseudo virus Entry in HEK293 Kidney Cells, SARS-COV-2): 89%; effect on Spike (RBD)-rhACE2 interaction ([3]; 100 μM to 100 nM, hydrochloride): did not produce a stimulation or enhancement of binding; also recorded: more potent at disrupting the interaction between ACE2 and RBD than BHH; IC50 ([3]; highest tested 100 μM, read-out: Estimated Relative IC50 against rhACE2 and RBD Interaction Assay, IC50_2): 232 µM; IC50 ([3]; read-out: Estimated Relative IC50 against rhACE2 and RBD Interaction Assay, IC50_1): 0.82 µM; remaining activity at 500 µM (ACE1; 500 μM, read-out: ACE activity remaining): 100%; effect on exopeptidase activity of ACE (ACE1; hydrochloride): did not inhibit the activity of ACE; Conc. at Max. % Viability (Vero E6 cells; Example C (Table 4)): 0.59 µM; Conc. at Min. % Viability (Vero E6 cells; Example C (Table 4)): 300 µM; Min. Viability (Vero E6 cells; Example C (Table 4)): 0.55%; Max. Viability (Vero E6 cells; Example C (Table 4), hydrochloride): 96% and 96.64%; percent minimum viability (Vero E6 cells; at 30 μM, Example B): 113.95%; Overall Gmean Days 1-4, E sgRNA, rectal swabs (SARS-CoV-2 USA_WA1/2020): 4.21 copies/swab; Overall Gmean Days 1-4 higher than Group 3, E sgRNA, rectal swabs (SARS-CoV-2 USA_WA1/2020): 3 fold; Peak viral load versus Group 3, N2 gRNA, rectal swabs (SARS-CoV-2 USA_WA1/2020): similar; Peak viral replication load higher than Group 3, E sgRNA, rectal swabs (SARS-CoV-2 USA_WA1/2020): 6 fold; SARS-CoV-2 genome load, N2 gRNA, lungs (SARS-CoV-2 USA_WA1/2020; Day 4): 4.03E+09 copies/gram; SARS-CoV-2 genome load, N2 gRNA, trachea (SARS-CoV-2 USA_WA1/2020; Day 4): 6.24E+08 copies/gram; active replication load higher than Group 3, E sgRNA, lungs (SARS-CoV-2 USA_WA1/2020; Day 4): 2 fold; active replication load, E sgRNA, lungs (SARS-CoV-2 USA_WA1/2020; Day 4): 2.78E+07 copies/gram; active replication load, E sgRNA, nasal turbinate (SARS-CoV-2 USA_WA1/2020; Day 4): 1.09E+08 copies/gram; active replication load, E sgRNA, trachea (SARS-CoV-2 USA_WA1/2020; Day 4): 1.11E+06 copies/gram; genome load higher than Group 3, N2 gRNA, lungs (SARS-CoV-2 USA_WA1/2020; Day 4): 2 fold; replication load higher than Group 3, E sgRNA, trachea (SARS-CoV-2 USA_WA1/2020; Day 4): similar; viral load higher than Group 3, N2 gRNA, trachea (SARS-CoV-2 USA_WA1/2020; Day 4): similar; serum IL-6 levels versus Group 3 (SARS-CoV-2 USA_WA1/2020; Day 4, ELISA, P<0.05): significantly lower; serum TNF-α versus Group 3 (SARS-CoV-2 USA_WA1/2020; Day −1, Day 2 (P<0.05), Day 4 (P<0.001)): significantly low; serum IL-10 levels between groups (SARS-CoV-2 USA_WA1/2020; Days −1, 2, 4): No significance difference; tolerability of administered doses (SARS-CoV-2 USA_WA1/2020; in vivo): tolerated the administered doses well; incidence and severity of microscopic lesions versus vehicle control (SARS-CoV-2 USA_WA1/2020; lung histopathology): similar; lung viral load by TCID50 assay versus vehicle control (SARS-CoV-2 USA_WA1/2020; lung samples Day 4): No difference; SARS-CoV-2 genome load, N2 gRNA, nasal turbinate (SARS-CoV-2 USA_WA1/2020; necropsy Day 4): 3.57E+10 copies/gram; gross lesions in the lung (SARS-CoV-2 USA_WA1/2020; necropsy Day 4): reduced gross lesions in the lung; Overall Gmean Days 1-4, E sgRNA, pharyngeal swabs (SARS-CoV-2 USA_WA1/2020; AMB 500, BHH 200 mg/kg/day PO): 1.89E+04 copies/swab; Overall Gmean Days 1-4 lower than Group 3, E sgRNA, pharyngeal swabs (SARS-CoV-2 USA_WA1/2020; AMB 500, BHH 200 mg/kg/day PO): 5 fold; Overall Gmean Days 1-4 viral load lower than Group 3, N2 gRNA, pharyngeal swabs (SARS-CoV-2 USA_WA1/2020; AMB 500, BHH 200 mg/kg/day PO): 4 fold; Overall Gmean viral load Days 1-4, N2 gRNA, pharyngeal swabs (SARS-CoV-2 USA_WA1/2020; AMB 500, BHH 200 mg/kg/day PO): 4.93E+07 copies/swab; Peak viral load lower than vehicle (Group 3), N2 gRNA, pharyngeal swabs (SARS-CoV-2 USA_WA1/2020; AMB 500, BHH 200 mg/kg/day PO): 16 fold; Peak viral replication load lower than Group 3, E sgRNA, pharyngeal swabs (SARS-CoV-2 USA_WA1/2020; AMB 500, BHH 200 mg/kg/day PO): 34 fold; Peak viral load, N2 gRNA, pharyngeal swabs (SARS-CoV-2 USA_WA1/2020; AMB 500, BHH 200 mg/kg/day PO, peak Day 2 (AMB), Day 1 (BHH)): 9.01E+06 copies/swab; Peak viral replication load, E sgRNA, rectal swabs (SARS-CoV-2 USA_WA1/2020; peak Day 1 (AMB), Day 2 (BHH)): 20.15 copies/swab; Peak viral replication load, E sgRNA, pharyngeal swabs (SARS-CoV-2 USA_WA1/2020; peak Day 2 (AMB), Day 1 (BHH)): 2.79E+04 copies/swab; Peak viral load, N2 gRNA, rectal swabs (SARS-CoV-2 USA_WA1/2020; peak on Day 2): 9.75E+04 copies/swab; CC50 at 72 h (in vitro; 50% cytotoxic concentration (CC50), Vero E6, 72 hours, Examples A and B, highest concentration 30 μM): > 30 µM; CC50 at 72 h (in vitro; Cytotoxicity CC50, Vero E6, 72 hours, Example C (Table 4)): 184 µM
